Measured values as given in US20110269793A1, “METHOD FOR PREVENTING TAU PROTEIN AGGREGATION AND TREATING ALZHEIMER'S DISEASE WITH A QUINOLINE DERIVATIVE COMPOUND” (priority 2010, published 2011).
Like-named read-outs stand apart in the source and are kept apart here. One block for each compound: values may come before it.

Experiments:
[1] = test system: tau protein from bovine brain; details: 7 days 37° C.; for Tau polymer concentration: tau 2.0 mg/mL, heparin 200 μg/mL, +control 3.00, −control 1.38
Method: (§1) Effect of the quinolines in the tau aggregation. Turbidimetric studies. Tau aggregation was monitored by means of its absorbance at λ 340 nm using UV spectrophotometry. Purified and highly concentrated tau protein from bovine brain (2.0 mg/mL) was re-suspended in MES 0.1 M pH 7.2 buffer and induced to polymerize in the form of PHFs in the presence of polyanions (heparin at a concentration of 200 μg/mL) at a final volume of 1.0 mL. This mixture was incubated at 37° C. and maintained under gentle agitation for 7 days. At the same time, another sample containing the tau protein, heparin (200 μg/mL) and the selected quinoline at different concentrations from 1.0 to 50 μM and a final volume of 1.0 mL was incubated in the same way, thus verifying the effect that quinolines have over tau aggregation. […] As an additional control the tau protein was replaced with water in order to measure the absorbance of these quinolines. Each sample was carried out in triplicate.
Effect of quinolines in tau aggregation. Sedimentation studies. After 7 days of incubation at 37° C. under gentle agitation, the sedimentation of the tau aggregates was conducted in the presence and in absence of quinolines. To this purpose, 400 μl were taken of each one of the samples prepared for the turbidimetric analysis and they were centrifuged at 42,000 g (18.000 rpm using the AH-650 rotor) at 37° C. for 25 min. The pellet obtained from each sample of this centrifugation was re-suspended in 50 μL of MES 0,1 M slightly alkaline (pH 7.2) buffer and the concentration of protein was established for each one of them. In this procedure, and because the sample volume is very small, a nanophotometer was used, measuring the concentration of the sedimented and re-suspended protein at λ 280 nm.

[2] = molecular target: T1, hTau protein (Homo sapiens, UniProt P10636); assay: biochemical
T1 sequence (P10636 with tags, fused parts or gaps): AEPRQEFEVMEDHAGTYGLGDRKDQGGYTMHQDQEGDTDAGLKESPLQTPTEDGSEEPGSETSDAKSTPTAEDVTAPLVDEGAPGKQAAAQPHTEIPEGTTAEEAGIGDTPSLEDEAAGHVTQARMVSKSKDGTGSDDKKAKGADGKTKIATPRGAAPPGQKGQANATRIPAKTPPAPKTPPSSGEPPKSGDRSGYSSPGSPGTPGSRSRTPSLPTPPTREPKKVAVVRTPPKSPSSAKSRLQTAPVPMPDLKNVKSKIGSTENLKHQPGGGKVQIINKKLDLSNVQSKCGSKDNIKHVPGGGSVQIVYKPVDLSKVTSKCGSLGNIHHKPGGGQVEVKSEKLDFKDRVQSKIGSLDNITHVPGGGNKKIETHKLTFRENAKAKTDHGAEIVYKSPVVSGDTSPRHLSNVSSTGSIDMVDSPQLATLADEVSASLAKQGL
Method: (§4) Subsequently, the tau protein, ^3H-AST and the quinolines are incubated for 4 hours at 25° C. under gentle agitation and the procedure depicted in FIG. 3 is followed.

[3] = molecular target: T1, hTau protein; details: hTau 230 nM, ^3H-AST 52 nM, cold ligand 10 nM to 10 μM
Method: as §4

[4] = Octanol/water partition coefficient (Log P); assay type: physicochemical; details: for Liposolubility expressed as Log P (in words): as candidates to cross the BHE; for logP: n-octanol / PBS 0.1× buffer, read-out: Log P (experimental)
Method: Pharm. Hung. 62 (1-2): 55-64, wherein 2 phases are used, an aqueous phase comprising a buffer solution PBS 0.1× pH 7.4 that is saturated with an n-octanol solution that comprises the organic phase.
Stock solutions at 1.0 mg/mL of each quinoline being studied were prepared in PBS buffer 0.1× pH 7.4 saturated in octanol. […] Starting from these solutions, dilutions were made for a range concentration of between 1.0 mg/mL and 100 μg/mL to establish their maximum absorbance in the UV-visible region.
Then the tested quinolines were dissolved in PBS 0.1× pH 7.4 saturated in n-octanol and agitated for 30 min. at room temperature. Subsequently, this emulsion was left to settle for 48 h and a centrifugation at 3,000 rpm for 10 minutes was carried out to separate the phases. Both the octanol/water partition coefficient and Log P were established using the difference in the absorbance in the UV-visible region for each compound using equation 1:
[THQ in octanol]=[THQ start]−[THQ buffer] Éq. 1:
The concentrations for THQ start are established using equation 2: […]
Subsequently, the P quotient in established between both phases as described by equation 3: […]
Finally the partition coefficient is established by Log P.
For this test 2 controls were used: clidinium bromide that is a quaternary amine that is not liposoluble, and sodium thiopental, which is a very liposoluble barbituric anaesthetic. Each part of the test was done in triplicate.

[5] = test system: tau protein from bovine brain; details: THQ 55 1.0 to 50 μM, FIG. 11
Method: as §1

[6] = molecular target: mGluR I (Homo sapiens, UniProt Q13255); details: Yanamala et al. 2008; cited from earlier work
Sequence of mGluR I (Q13255 19-1194): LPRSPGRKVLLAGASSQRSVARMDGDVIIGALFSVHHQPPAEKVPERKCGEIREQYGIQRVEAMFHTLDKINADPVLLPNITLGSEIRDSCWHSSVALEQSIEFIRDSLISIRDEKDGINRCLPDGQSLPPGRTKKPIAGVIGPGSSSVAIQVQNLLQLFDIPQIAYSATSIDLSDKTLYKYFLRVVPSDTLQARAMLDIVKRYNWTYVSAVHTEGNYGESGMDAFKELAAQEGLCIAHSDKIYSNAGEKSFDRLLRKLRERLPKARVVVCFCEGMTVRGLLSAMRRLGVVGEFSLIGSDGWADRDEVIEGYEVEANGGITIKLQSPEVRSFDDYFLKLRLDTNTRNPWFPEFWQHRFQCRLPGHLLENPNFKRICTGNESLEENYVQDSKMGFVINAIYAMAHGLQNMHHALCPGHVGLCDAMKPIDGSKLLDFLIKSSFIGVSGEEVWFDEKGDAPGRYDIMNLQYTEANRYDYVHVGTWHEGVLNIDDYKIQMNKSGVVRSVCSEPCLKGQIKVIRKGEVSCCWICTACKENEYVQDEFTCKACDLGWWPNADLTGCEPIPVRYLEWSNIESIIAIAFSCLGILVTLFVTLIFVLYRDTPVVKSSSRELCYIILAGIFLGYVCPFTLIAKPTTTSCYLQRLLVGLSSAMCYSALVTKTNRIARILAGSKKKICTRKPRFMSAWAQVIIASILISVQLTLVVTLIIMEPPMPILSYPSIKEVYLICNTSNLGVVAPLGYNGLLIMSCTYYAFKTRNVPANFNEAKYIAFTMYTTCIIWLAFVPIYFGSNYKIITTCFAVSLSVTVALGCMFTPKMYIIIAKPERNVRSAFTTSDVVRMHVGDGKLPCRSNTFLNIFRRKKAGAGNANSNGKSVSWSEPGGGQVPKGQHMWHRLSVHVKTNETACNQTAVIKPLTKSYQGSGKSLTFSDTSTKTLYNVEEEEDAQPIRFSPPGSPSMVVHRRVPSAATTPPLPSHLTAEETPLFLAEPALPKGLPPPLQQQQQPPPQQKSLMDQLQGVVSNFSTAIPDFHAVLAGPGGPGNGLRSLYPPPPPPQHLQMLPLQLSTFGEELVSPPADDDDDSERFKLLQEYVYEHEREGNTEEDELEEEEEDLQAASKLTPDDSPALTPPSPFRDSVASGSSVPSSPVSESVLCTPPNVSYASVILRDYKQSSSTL

[7] = test system: Human PHFs; assay: Scatchard saturation test with ^3H-AST, PHFs; assay type: binding
From the text: (§2) Interactions of quinolines with tau and in vitro displacement tests with H^3-AST. In previous laboratory tests by the inventor and also from other authors (Okamura N., Suemoto T., Furumoto S., Suzuki M., Shimadzu H., Akatsu H., Yamamoto T., Fujiwara H., Nemoto M., Maruyama M., Arai H., Yanai K., Sawada T., Kudo Y. (2005), Quinoline and becimidazole derivatives: candidate probes for in vivo imaging of tau pathology in Alzheimer's disease, J. Neurosci. 25: 10857-10862; Rojo L., Avila M., Chandia M., and Maccioni R. B. (2007), ^18F Lansoprazole as PET radiotracer, Chemical and biological studies towards the development of a New PET Radiotracer, International Conference on Clinical PET and Molecular Nuclear Medicine. 10-14 November, Bangkok) the Kd and binding maximums specific to some benzimidazols of clinical use were established, among them [O-methyl-3H]-astemizol (FIG. 2) through the interaction established with the tau protein. With this background Scatchard and displacement tests are performed with the quinolines mentioned before.
(§3) For the Scatchard test a fixed tau protein concentration (230 nM) and variable concentrations of ^3H-AST between 10 and 120 nM was used, leading to a final volume of 20 μL with 8% ethanol (EtOH 8%). The tau protein underwent treatment previous to this test, incubating the same at 37° C. under gentle agitation for 7 days. Subsequently the tau protein and ^3H-AST were incubated for 4 h at 25° C. under gentle agitation. Then this solution was filtered under vacuum for 10 minutes and the filtering papers were dried at room temperature, and transferred to a vial with 1.0 mL of scintillating liquid. It is then left in the dark and finally the counts per minute (cpm) are measured in a scintillating counting equipment.

[8] = molecular target: Human Tau (441a.a.) (Homo sapiens, UniProt P10636); assay: Scatchard saturation test with ^3H-AST, tau filaments; assay type: binding; details: for Affinity to tau filaments (in words): saturation studies, FIG. 12
Sequence of Human Tau (441a.a.) (P10636 1-441 isoform P10636-8): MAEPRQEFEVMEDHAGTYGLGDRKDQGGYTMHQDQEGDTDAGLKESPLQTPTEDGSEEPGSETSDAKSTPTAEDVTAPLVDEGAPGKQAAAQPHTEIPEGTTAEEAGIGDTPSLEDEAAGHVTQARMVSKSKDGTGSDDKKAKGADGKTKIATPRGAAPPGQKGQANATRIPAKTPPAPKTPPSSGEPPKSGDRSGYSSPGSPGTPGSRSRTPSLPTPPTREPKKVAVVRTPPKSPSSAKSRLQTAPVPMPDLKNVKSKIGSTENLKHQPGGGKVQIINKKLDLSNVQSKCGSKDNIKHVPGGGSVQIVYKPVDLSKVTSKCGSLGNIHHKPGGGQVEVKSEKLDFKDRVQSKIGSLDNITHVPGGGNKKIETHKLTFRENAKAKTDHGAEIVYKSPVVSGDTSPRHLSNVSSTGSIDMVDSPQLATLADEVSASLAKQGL
From the text: as §2, §3

[9] = molecular target: mGluR 5 (Homo sapiens, UniProt P41594); details: Yanamala et al. 2008; cited from earlier work
Sequence of mGluR 5 (P41594 21-1212): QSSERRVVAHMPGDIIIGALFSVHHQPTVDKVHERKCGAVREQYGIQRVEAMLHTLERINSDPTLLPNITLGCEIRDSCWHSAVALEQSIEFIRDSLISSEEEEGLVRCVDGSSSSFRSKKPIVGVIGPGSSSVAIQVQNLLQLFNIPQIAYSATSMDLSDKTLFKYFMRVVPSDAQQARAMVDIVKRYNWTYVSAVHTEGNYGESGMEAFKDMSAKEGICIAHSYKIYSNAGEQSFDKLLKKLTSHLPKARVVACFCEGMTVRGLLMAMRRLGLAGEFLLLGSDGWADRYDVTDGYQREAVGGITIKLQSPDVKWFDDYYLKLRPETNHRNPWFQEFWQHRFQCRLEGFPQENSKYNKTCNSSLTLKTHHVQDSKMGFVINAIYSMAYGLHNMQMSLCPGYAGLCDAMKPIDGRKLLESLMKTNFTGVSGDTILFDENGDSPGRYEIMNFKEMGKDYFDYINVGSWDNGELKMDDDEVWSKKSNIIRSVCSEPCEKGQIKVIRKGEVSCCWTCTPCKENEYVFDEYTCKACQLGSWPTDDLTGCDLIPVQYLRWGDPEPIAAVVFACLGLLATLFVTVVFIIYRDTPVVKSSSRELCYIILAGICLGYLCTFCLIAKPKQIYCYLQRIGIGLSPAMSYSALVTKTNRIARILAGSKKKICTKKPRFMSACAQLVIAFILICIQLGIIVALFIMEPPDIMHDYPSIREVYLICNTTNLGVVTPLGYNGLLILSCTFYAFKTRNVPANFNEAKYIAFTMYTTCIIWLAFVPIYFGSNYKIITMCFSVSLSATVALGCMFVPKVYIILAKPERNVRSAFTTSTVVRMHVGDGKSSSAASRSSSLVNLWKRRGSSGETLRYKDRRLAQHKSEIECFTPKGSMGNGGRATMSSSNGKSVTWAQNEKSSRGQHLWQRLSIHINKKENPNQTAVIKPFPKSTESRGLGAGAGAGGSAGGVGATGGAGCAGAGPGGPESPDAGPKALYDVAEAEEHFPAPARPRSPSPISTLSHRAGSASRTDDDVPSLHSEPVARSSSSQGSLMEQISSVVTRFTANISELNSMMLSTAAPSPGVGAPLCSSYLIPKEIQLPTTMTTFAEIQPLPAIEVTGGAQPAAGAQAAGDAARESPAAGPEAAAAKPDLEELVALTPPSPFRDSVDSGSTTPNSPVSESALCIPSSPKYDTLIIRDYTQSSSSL

[10] = partition coefficient octanol/PBS buffer 0.1× pH 7.4, triplicate
[11] = tau filaments induced with heparin

Structure (SMILES): Cc1ccc2nc(-c3ccc(N)cc3)ccc2c1 [THQ 55, 2-(4-aminophenyl), 6-(methyl)quinoline]
Effect over the auto-aggregation of tau protein (sedimented protein at λ 280 nm) [1]: pronounced inhibitory effect
Tau polymer concentration ([1]; compound 1.0 μM): 2.72 + 0.002 mg/mL
Tau polymer concentration ([1]; compound 10 μM): 2.43 + 0.003 mg/mL
Tau polymer concentration ([1]; compound 50.0 μM): 0.79 + 0.004 mg/mL
Ki [2]: > 10000 nM
Displacement of the radioligand [3]: do not displace the radioligand
Liposolubility expressed as Log P (in words) [4]: optimal
logP [4, 10]: 1.97
Inhibition of tau aggregation (absorbance at λ 340) [5]: high capacity to inhibit tau aggregation

Structure (SMILES): O=C(Cc1ccccc1)c1ccc2nc3c(cc2c1)CCCO3 [R214127]
Docking Energies [6]: -7.34 kcal/mol

Liposolubility expressed as Log P (in words) [4]: optimal
logP [4, 10]: 2.58
Structure (SMILES): Cc1cccc(-c2ccc3cc(C)ccc3n2)c1 [THQ 12S, 2-(5-methylphenyl), 6-(methyl)quinoline]

Structure (SMILES): [3H]COc1ccc(CCN2CCC(Nc3nc4ccccc4n3Cc3ccc(F)cc3)CC2)cc1 [^3H-AST, [O-methyl-3H]-astemizol]
Bmax [7]: 13.07 nM
Bmax/Kd index [7]: 3.316
Bmax/Kd index [8]: 3.00
Affinity to tau filaments (in words) [8]: high affinity
Bmax [8, 11]: 5.7 pmol/nmol tau

Structure (SMILES): COc1ccc(CCN2CCC(Nc3nc4ccccc4n3Cc3ccc(F)cc3)CC2)cc1 [^3H-AST, [O-methyl-3H]-astemizol]
Kd [7]: 3.94 nM
Kd [8, 11]: 1.86 nM

Structure (SMILES): Cc1cccc(C#Cc2ccccc2)n1 [MPEP]
Docking Energies [9]: -7.77 kcal/mol

logP [4, 10]: -0.214
Structure (SMILES): Cc1ccc(-c2ccc3cccc(Br)c3n2)cc1 [THQ 9S, 2-(4-methylphenyl), 8-(bromo)quinoline]

Structure (SMILES): COc1ccc2nc(-c3ccc(C)cc3)ccc2c1 [THQ 3S, 2-(4-methylphenyl), 6-(O-methyl)quinoline]
Log P (experimental) [4, 10]: 0.434 + 0.005

Structure (SMILES): COc1ccc(CCN2CCC(Nc3nc4ccccc4n3Cc3ccc(F)cc3)CC2)cc1 [Ast, Astemizol, reference compound]
Tau polymer concentration ([1]; compound 10 μM): 2.84 + 0.002 mg/mL
Affinity to tau filaments (in words) [8]: high affinity

Structure (SMILES): Cc1ccc(-c2ccc3cc(C)ccc3n2)cc1 [THQ 4S, 2-(4methylphenyl), 6-(methyl)quinoline]
Ki [2]: > 10000 nM
Displacement of the radioligand [3]: do not displace the radioligand
Liposolubility expressed as Log P (in words) [4]: optimal
logP [4, 10]: 2.66
